According to patent US5968751A, “Method for detecting the presence of protein C antibody in a fluid sample” (The Scripps Research Institute, priority 1997, dated 1999):
No end group written: not given here.

What was measured:
Assay type in all cases: biochemical
APC [1] = molecular target: T1, APC (Homo sapiens, UniProt P04070); experiment: APC-catalyzed inactivation of Factor Va, residual Va by prothrombinase assay; design: Protein C consists of a 155 amino acid residue light chain and a 262 amino acid residue heavy chain; from tissue; Factor Va a gift (Tans and Rosing, Univ. of Limburg)
Procedure: The APC catalyzed inactivation of Factor Va assays were performed in 96-well flat bottom ELISA plates (Stockwell Scientific, Walnut, Calif.). The reactions were performed either in the presence or absence of phospholipid vesicles to determine if either PC311-325 or PC142-155 inhibited APC anticoagulant activity by inhibiting the binding of APC or its substrate to phospholipids or if it was independent of phospholipid surfaces. This determination was relevant in light of reports that the assembly of APC with its substrates Va and VIIIa on the phospholipid surface appeared to be mediated mainly by the Gla-domain of APC in the presence of calcium which was crucial for exerting significant anticoagulant activity. [Sugo et al., J. Biol. Chem., 260:10453-10457 (1985); […] et al., J. Biol. Chem., 261:9684-9693 (1986); Solymoss et al., J. Biol. Chem., 263:14884-14890 (1988)]. For the preparation of phospholipid residues for use in the assay bovine brain phosphatidylserine in chloroform […]/methanol (CH3 OH) and soybean phosphatidylcholine (Type III-S, CCl4 solution) were purchased from Sigma and were reported to be at least 98% homogeneous (supplier's estimates). To prepare vesicles, phosphatidylserine was admixed with phosphatidylcholine (20% phosphatidylserine/80% phosphatidylcholine; M/M) and the organic solvent evaporated under a stream of nitrogen. The resultant phospholipid admixture was resuspended in 0.05 M TBS-Az at pH 7.4 as a 1.25 mM solution by vortexing. Single bilayer vesicles were obtained during sonication by direct probe (Heat-Systems-Ultrasonics, Inc., […] Sonicator) for 6×30 second bursts at 30 W in 2 minute intervals at 4° C. The reaction buffer consisted of 0.05 M Tris-HCl, at pH 7.4 containing 0.1 M NaCl, 0.02% NaN3, 0.5% BSA and 2.5 mM CaCl2. […] M/M) either at 22° C. (in the presence of phospholipids) or at 37° C. (in the absence of phospholipids). […] The monoclonal antibody C3 which specifically recognizes the light-chain of PC as well as APC was prepared as in Example 2. Factor Va (a gift from Drs. Tans and Rosing, Univ. of Limburg, the Netherlands) was first admixed with or without PC311-325 or PC142-155 and maintained for 20 minutes either at 22° C. or at 37° C. prior to admixture with APC. […] Factor Va was determined via its cofactor activity in the activation of prothrombin by Factor Xa. […] The molar concentration of Factor Xa was determined by active site titration as described by Chase et al., Biochem. Biophys. […]
Target sequence in this assay (P12259 29-737 partner limits assumed): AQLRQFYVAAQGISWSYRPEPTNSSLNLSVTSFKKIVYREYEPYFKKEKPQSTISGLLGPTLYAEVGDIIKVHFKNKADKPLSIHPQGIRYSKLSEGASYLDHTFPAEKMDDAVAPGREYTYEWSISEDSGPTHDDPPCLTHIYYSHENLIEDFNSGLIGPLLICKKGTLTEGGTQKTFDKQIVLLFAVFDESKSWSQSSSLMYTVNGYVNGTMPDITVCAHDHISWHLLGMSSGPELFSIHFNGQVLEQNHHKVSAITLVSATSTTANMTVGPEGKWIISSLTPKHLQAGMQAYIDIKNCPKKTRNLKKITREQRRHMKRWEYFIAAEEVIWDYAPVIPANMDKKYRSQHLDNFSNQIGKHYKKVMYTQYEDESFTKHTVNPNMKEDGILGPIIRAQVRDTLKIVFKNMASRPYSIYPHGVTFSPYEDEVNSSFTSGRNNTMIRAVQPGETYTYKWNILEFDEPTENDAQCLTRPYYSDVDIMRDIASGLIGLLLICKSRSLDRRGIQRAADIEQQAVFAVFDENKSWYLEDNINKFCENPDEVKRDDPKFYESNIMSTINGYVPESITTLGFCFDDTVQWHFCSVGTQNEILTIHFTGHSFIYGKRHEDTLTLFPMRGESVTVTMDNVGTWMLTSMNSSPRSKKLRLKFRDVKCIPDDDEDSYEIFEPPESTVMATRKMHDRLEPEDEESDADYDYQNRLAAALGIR
Target sequence in this assay (P12259 1574-2224 partner limits assumed): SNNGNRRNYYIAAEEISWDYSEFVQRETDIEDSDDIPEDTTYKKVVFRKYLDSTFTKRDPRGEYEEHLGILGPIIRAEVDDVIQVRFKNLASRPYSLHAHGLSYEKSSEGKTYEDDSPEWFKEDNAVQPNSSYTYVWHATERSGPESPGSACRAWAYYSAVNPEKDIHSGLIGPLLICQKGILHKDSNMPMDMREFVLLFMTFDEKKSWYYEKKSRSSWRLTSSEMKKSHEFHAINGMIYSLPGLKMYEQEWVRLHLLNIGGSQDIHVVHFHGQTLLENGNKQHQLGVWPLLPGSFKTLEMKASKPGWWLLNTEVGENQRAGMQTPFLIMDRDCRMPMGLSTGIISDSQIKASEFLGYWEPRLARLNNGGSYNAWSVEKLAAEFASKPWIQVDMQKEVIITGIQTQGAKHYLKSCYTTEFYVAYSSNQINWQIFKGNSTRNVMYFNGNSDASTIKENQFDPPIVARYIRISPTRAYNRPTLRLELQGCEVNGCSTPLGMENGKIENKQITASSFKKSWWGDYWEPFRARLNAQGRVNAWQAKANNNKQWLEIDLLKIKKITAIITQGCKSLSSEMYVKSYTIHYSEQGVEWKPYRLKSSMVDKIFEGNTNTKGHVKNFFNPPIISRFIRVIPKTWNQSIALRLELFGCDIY
Target sequence in this assay (P04070 43-197 limits assumed): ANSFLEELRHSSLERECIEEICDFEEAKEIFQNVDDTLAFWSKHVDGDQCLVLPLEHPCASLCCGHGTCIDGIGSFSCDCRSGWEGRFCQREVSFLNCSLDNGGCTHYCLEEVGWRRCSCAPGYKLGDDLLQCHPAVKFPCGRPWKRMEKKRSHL
Target sequence in this assay (P04070 212-450 limits assumed): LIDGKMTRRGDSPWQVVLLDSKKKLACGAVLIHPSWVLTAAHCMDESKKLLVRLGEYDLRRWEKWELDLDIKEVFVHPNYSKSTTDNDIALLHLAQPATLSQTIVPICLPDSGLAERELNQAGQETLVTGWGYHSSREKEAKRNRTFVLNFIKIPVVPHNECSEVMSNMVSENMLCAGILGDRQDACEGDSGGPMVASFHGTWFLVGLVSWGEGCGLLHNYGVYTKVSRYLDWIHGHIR

thrombin = thrombin (Homo sapiens, UniProt P00734); experiment: thrombin amidolytic activity towards chromogenic substrates
APC [2] = molecular target: T1, APC; experiment: amidolytic activity of APC towards S-2366; design: Protein C consists of a 155 amino acid residue light chain and a 262 amino acid residue heavy chain; from tissue; host or cells: human plasma factor IX concentrate; settings: for Change in A405 /5 minutes: 10 nM APC, 250 μM PC311-325, 500 μM PC142-155, 30 minutes at 37° C., S-2366
Procedure: The amidolytic activity of APC toward the peptide substrate S-2366 was measured in the presence of various PC synthetic peptides derived from both the heavy and light chain, prepared in Example 1. For the assay, 100 μl of 10 nM APC, prepared in Example 2c2), were admixed with separate aliquots of 250 μM of PC311-325 and 500 μM Df PC142-155 prepared in TBS-BSA at pH 7.4 containing 0.02% NaN3 and 2 mM CaCl2 to form APC-peptide admixtures. After maintenance of the admixtures for 30 minutes at 37° C., 50 μl of 2.4 mM S-2366 in the same buffer were admixed to initiate the amidolytic reaction. The hydrolysis of the substrate was monitored by the change in absorbance at 405 nm at 37° C. over time using an EL312 Microplate Bio-Kinetics Reader (BIO-TEK Instruments, Inc. Vermont.). All data are mean values of duplicate measurements.
The amidolytic activity of APC toward the peptide substrate S-2366 was measured in the presence of anti-PC317-331 antibody. For the assay, 100 μl of 15 nM APC, prepared in Example 2c2), were admixed with separate aliquots of anti-PC317-331 antibody ranging in concentration from […] prepared in TBS-BSA at pH 7.4 containing 0.02% NaN3 and 2 mM CaCl2 to form APC-anti-PC317-331 antibody immunoreaction admixtures. After maintenance of the admixtures for 30 minutes at 37° C. to allow formation of immunoreaction products, 50 μl of 2.4 mM S-2366 in the same buffer was admixed to initiate the amidolytic reaction. The hydrolysis of the substrate was monitored by the change in absorbance at 405 nm over time using an EL312 Microplate Bio-Kinetics Reader (BIO-TEK Instruments, Inc. Vermont.).
Target sequence in this assay (P04070 43-197 limits assumed): as the sequence (P04070 43-197 limits assumed) above
Target sequence in this assay (P04070 212-450 limits assumed): as the sequence (P04070 212-450 limits assumed) above

Molecule	rate of Factor Va inactivation (%Vi /min) (APC [1]; absence of phospholipids, 5 nM APC, 40 nM Va, 50 μM PC311-325) [% Vi /min]	IC50 (APC [1]; presence of phospholipid vesicles, read-out: half-maximal inhibition of the APC-catalyzed inactivation of Factor Va) [µM]	inhibition at 50 µM (APC [1]; read-out: inhibition of APC activity) [%]	effect on thrombin amidolytic activity towards chromogenic substrates (thrombin)	Change in A405 /5 minutes (APC [2])	effect on APC amidolytic activity towards S-2366 (APC [2]; up to 250 μM PC311-325 or 500 μM PC142-155, 30 min at 37° C.)	inhibition at 500 µM (APC [1]; absence of phospholipids, 500 μM PC142-155) [%]
KRNRTFVLNFIKIPV-NH2 [PC311-325, Lys-Arg-Asn-Arg-Thr-Phe-Val-Leu-Asn-Phe-Ile-Lys-Ile-Pro-Val]	0.5	6	87	no significant effect	0.342	no significant effect	
CSCC[C@H](NC(=O)[C@H](CCCNC(=N)N)NC(=O)[C@H](CCCCN)NC(=O)[C@H](Cc1c[nH]c2ccccc12)NC(=O)[C@@H]1CCCN1C(=O)[C@H](CCCNC(=N)N)NC(=O)CN)C(=O)N[C@@H](CCC(=O)O)C(=O)N[C@@H](CCCCN)C(=O)N[C@@H](CCCCN)C(=O)N[C@@H](CCCNC(=N)N)C(=O)N[C@@H](CO)C(=O)N[C@@H](Cc1c[nH]cn1)C(=O)N[C@@H](CC(C)C)C(=O)N[C@@H](CS)C(N)=O [PC142-155, Gly-Arg-Pro-Trp-Lys-Arg-Met-Glu-Lys-Lys-Arg-Ser-His-Leu]							87
MHKLREGKWRPKSR [Scrambled peptide, reference compound]				no significant effect	0.364		
